Data taken from patent US20130217694A1, “METHOD OF REDUCING THE SEVERITY OF INFLAMMATORY DERMATOLOGICAL CONDITIONS” (Allergan, Inc.., priority 2003, published 2013).
“Also recorded” adds a separate entry of the source.

Tests used:
[1] = target: T1, hamster α-1B adrenergic receptor (Mesocricetus auratus, UniProt P18841); format: cell-based; conditions: for hamster α1B % E: percent efficacy relative to phenylephrine; for agonist activity at the α-1B receptor: result in words
T1 sequence (P18841 1-515): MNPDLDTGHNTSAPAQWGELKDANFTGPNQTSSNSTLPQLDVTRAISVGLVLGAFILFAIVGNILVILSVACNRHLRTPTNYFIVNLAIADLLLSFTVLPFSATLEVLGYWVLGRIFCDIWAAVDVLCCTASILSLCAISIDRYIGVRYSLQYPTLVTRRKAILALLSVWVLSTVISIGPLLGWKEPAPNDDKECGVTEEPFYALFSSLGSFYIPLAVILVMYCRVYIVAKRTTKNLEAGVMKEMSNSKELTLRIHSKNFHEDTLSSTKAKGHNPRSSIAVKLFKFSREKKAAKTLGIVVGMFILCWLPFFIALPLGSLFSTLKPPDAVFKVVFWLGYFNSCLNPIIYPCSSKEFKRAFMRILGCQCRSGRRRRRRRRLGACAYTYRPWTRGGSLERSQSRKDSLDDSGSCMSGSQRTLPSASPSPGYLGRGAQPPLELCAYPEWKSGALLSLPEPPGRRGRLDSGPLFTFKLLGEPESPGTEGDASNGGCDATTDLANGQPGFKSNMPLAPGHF
Procedure: The bovine α-1A and hamster α-1B receptor supernatants were added, in varying amounts, to naive HEK293 cells, which were then incubated for 48 hours. The transduced cell populations were replated at a lower density and grown in media containing 0.25 ug/ml puromycin. […] Receptor density was measured in a prazosin radioligand binding assay.
Intracellular Ca^+2 responses were measured as follows in HEK293 cells stably expressing either the bovine α-1A or hamster α-1B adrenergic receptor. Between 40,000 to 50,000 cells were plated per well in 96-well poly-D-lysine coated plates in 0.2 ml DMEM containing 10% heat-inactivated fetal calf serum, 1% antibiotic-antimycotic and 0.25 μg/ml puromycin one day prior to use. Cells were washed twice with HBSS supplemented with 10 mM HEPES, 2.0 mM CaCl2 and 2.5 mM probenicid, and subsequently incubated at 37° C. for 60 minutes with 4 μM Fluo-4 (Molecular Probes; Eugene, Oreg.). The extracellular dye was washed from the plates twice prior to placing the plates in the fluorometric imaging plate reader (FLIPR; Molecular Devices; Sunnyvale, Calif.). Ligands were diluted in HBSS and aliquoted into a 96-well microplate. Drugs were tested over the concentration range of 0.64 nM to 10,000 nM. Data for Ca^+2 responses were obtained in arbitrary fluorescence units.

human α-2C receptor = target: T2, human α-2C receptor (Homo sapiens, UniProt P18825); assay: Inhibition of forskolin-induced cAMP accumulation in PC12 cells expressing human α-2C receptor; format: cell-based; conditions: percent efficacy relative to brimonidine
T2 construct: expressed in transfected cells; host or cells: PC12 cells (retroviral vector pCL BABE Puro)
T2 sequence (P18825 1-462): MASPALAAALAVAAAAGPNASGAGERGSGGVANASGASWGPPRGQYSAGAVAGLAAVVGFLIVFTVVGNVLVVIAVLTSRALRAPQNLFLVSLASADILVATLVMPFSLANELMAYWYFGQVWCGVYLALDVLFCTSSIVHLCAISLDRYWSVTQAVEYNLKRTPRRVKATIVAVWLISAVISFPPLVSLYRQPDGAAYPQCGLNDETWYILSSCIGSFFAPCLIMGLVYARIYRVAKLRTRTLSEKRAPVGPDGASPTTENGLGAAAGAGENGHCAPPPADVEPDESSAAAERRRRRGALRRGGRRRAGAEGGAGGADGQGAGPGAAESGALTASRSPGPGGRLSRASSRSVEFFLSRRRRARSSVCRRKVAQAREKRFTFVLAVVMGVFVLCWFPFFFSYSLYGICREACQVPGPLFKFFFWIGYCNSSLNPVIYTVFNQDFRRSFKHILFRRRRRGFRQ
Procedure: The human α-2A and α-2C receptor supernatants were added, in varying amounts, to naive PC12 cells, which were then incubated for 48 hours. The transduced cell populations were replated at a lower density and grown in media containing 100 ug/ml puromycin.
Intracellular cAMP measurement was performed as follows. PC12 cells stably expressing the human α-2A or human α-2C adrenergic receptors were plated in 96-well poly-D-lysine coated plates at a density of 30,000 cells per well in 100 μl DMEM supplemented with 10% horse serum, 5% heat inactivated fetal bovine serum, 1% antibiotic-antimycotic and 100 μg/ml puromycin. Cells were grown overnight at 37° C. and 5% CO2. Cells were dosed by adding an equal volume of media containing IBMX (to a final concentration of 1 mM), forskolin (to a final concentration of 10 μM) and the appropriate drug dilution (to a final concentration of between 10^−5 M and 10^−12 M). After a 10 minute incubation, the media was aspirated and the cells lysed with 200 μl lysis buffer (Amersham Biosciences; Piscataway, N.J.). Plates were stored at −20° C. for up to 24 hours prior to assay. Intracellular cAMP was determined using the Biotrak cAMP enzyme immunoassay system (Amersham Biosciences) according to the manufacturer's instructions. Plates were read on a plate reader at 450 nm.

mice [2] = conditions: intraperitoneal dosing, wildtype mice; result in words
Procedure: The tactile hypersensitivity of 5-6 mice per group was scored every five minutes between 15 and 50 minutes following intraperitoneal dosing. […] In addition, the locomoter activity of 5-6 mice per group was measured in a five minute period 30 minutes following intraperitoneal dosing. The locomoter activity relative to vehicle-treated animals was expressed as a percentage; percentage sedation was calculated as 100% minus the percent locomoter activity.

mice [3] = assay: Sulprostone-induced tactile hypersensitivity in mice; format: in vivo, mouse; conditions: for analgesic activity in sulprostone-induced tactile hypersensitivity: result in words
Procedure: The activity of a synthetic EP1/EP3 receptor-selective prostaglandin agonist, sulprostone, also was assayed.
Spinal drug injections were performed as follows. […] Briefly, a sterile 30-gauge ½ inch needle attached to a microsyringe was inserted between the L5 and L6 vertebrae. The mouse was held firmly by the pelvic girdle in one hand, while the syringe was held in the other hand at an angle of approximately 20° above the vertebral column. The needle was inserted into the tissue to one side of the L6 spinous process, into the groove between the spinous and transverse processes. The needle angle was decreased to about 10°, and the needle slowly advanced forward into the intervertebral space until a pop was felt and there was a visible serpentine tail movement. Compounds were slowly injected in the subarachnoid space in a volume of 5 μl. Each compound was tested at multiple doses. The minimal efficacious dose was used for all subsequent experiments.
Sensitivity to light touch was quantified by scoring the response of mice to light stroking of their flanks with a small paintbrush, which is not normally painful. […] Statistical calculations of significance for in vivo studies were done using a two-tailed Students t-test.

Brc1c(NC2=NCCN2)ccc2nccnc12 [Brimonidine, 5-bromo-6-(2-imidazolin-2-ylamino)quinoxaline]
hamster α1B % E [1]: 12% | agonist activity at the α-1B receptor [1]: no activity | human α2C % E (human α-2C receptor): 93% | alleviation of sulprostone-induced tactile hypersensitivity in the absence of sedation (mice [2]): alleviates sulprostone-induced tactile hypersensitivity in the absence of sedation | analgesic activity in sulprostone-induced tactile hypersensitivity (mice [3]; wildtype mice): analgesic | analgesic activity in sulprostone-induced tactile hypersensitivity (mice [3]; α-2A knockout mice): neither clonidine nor brimonidine were analgesic | analgesic activity in sulprostone-induced tactile hypersensitivity (mice [3]; α-2C knockout mice): analgesic

Clc1cccc(Cl)c1N=C1NCCN1 [Clonidine]
hamster α1B % E [1]: 63% | agonist activity at the α-1B receptor [1]: partial agonists | human α2C % E (human α-2C receptor): 84% | analgesic activity in sulprostone-induced tactile hypersensitivity (mice [3]; wildtype mice): analgesic in wildtype mice; also recorded: analgesic in wild type mice | analgesic activity in sulprostone-induced tactile hypersensitivity (mice [3]; α-2A knockout mice): not in α-2A or α-2C knockout mice; also recorded: neither clonidine nor brimonidine were analgesic | analgesic activity of clonidine co-administered with prazosin (mice [3]; α-2C knockout mice, prazosin 100 ng/kg i.p., clonidine 400 ng i.t., sulprostone 200 ng i.t.): restore the analgesic activity | analgesic activity in sulprostone-induced tactile hypersensitivity (mice [3]; α-2C knockout mice): not in α-2A or α-2C knockout mice; also recorded: not in α-2C knockout mice
